Results from paper PMC9820444, “Design and Synthesis of Acridine-Triazole and Acridine-Thiadiazole Derivatives and Their Inhibitory Effect against Cancer Cells” (International Journal of Molecular Sciences, 2022).

Legend:
[1] = tested on: large cell lung cancer cells (NCI-H460); assay: MTT antiproliferative assay, NCI-H460; type: cell-based, human; details: Homo sapiens, read-out: Effect against cell viability (IC50), NCI-H460
[2] = target: T1, DNA topoisomerase I (topo I) (Bos taurus, UniProt F1MN93); assay: Topo I inhibitory activity (pBR322); type: biochemical; details: at 100 µM
T1 construct: purchased Takara Bio Inc. (Shiga, Japan)
T1 sequence (F1MN93 1-767): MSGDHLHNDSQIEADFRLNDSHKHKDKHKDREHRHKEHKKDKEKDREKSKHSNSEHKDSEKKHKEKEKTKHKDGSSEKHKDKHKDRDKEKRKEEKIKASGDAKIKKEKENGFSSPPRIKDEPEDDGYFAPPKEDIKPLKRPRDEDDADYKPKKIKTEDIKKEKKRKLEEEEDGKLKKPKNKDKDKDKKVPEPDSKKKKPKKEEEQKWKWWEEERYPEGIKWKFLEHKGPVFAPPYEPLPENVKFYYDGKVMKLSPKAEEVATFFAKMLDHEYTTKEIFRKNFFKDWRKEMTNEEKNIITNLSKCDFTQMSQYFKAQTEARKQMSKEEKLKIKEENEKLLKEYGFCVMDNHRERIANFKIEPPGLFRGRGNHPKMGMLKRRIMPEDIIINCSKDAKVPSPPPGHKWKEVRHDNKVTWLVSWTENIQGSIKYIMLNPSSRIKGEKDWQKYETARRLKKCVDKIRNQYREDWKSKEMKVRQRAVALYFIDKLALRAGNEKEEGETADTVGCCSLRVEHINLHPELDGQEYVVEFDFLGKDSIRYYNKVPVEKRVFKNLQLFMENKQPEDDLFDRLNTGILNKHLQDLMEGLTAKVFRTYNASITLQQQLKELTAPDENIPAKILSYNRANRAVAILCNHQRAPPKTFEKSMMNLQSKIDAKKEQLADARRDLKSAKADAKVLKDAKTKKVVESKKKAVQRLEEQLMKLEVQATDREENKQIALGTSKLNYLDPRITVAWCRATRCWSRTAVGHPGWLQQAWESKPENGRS

[3] = tested on: hepatocellular carcinoma bel-7404 (BEL-7404); assay: MTT antiproliferative assay, BEL-7404; type: cell-based, human; details: Homo sapiens, read-out: Effect against cell viability (IC50), BEL-7404
[4] = tested on: bladder cancer cells (T24); assay: MTT antiproliferative assay, T24; type: cell-based, human; details: Homo sapiens, read-out: Effect against cell viability (IC50), T24

For `COc1ccc(-c2nnc(N=C3c4ccccc4NC4C=CC(C)=CC34)s2)cc1` (stereo not shown) [6h, 7-methyl-N-(5-(4-methoxyphenyl)-1,3,4-thiadiazol-2-yl)-10,10a-dihydroacridin-9(8aH)-imine], which IC50 [1] is on record?
The IC50 was 13.3 ± 1.39 µM.

And the “topo I inhibitory activity” value [2]?
The value was “potent”.

And the IC50 [3]?
Its IC50 is 20.2 ± 1.59 µM.

What about the IC50 [4] of the same compound?
The IC50 was 8.93 ± 1.25 µM.
